According to PubChem BioAssay (NCI):
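Compound exposure: 48 hours, 5 concentrations, 96-well plates. TGI is the concentration that stops growth completely.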

Legend:
Assay in all cases: NCI-60 cell line screen, 48 h
K-562 leukemia = test system: K-562 leukemia
MALME-3M melanoma = test system: MALME-3M melanoma
UACC-257 melanoma = test system: UACC-257 melanoma
SK-MEL-2 melanoma = test system: SK-MEL-2 melanoma
ACHN renal = test system: ACHN renal
DMS 273 small cell lung = test system: DMS 273 small cell lung
OVCAR-8 ovarian = test system: OVCAR-8 ovarian
MOLT-4 leukemia = test system: MOLT-4 leukemia
SNB-75 CNS = test system: SNB-75 CNS
HCC-2998 colon = test system: HCC-2998 colon
XF 498 CNS = test system: XF 498 CNS
SN12C renal = test system: SN12C renal
HT29 colon = test system: HT29 colon
COLO 205 colon = test system: COLO 205 colon
NCI-H460 lung = test system: NCI-H460 lung
NCI-H522 lung = test system: NCI-H522 lung
SK-MEL-5 melanoma = test system: SK-MEL-5 melanoma
HOP-92 NSCLC = test system: HOP-92 NSCLC
A549 NSCLC = test system: A549 NSCLC
OVCAR-4 ovarian = test system: OVCAR-4 ovarian
HL-60(TB) leukemia = test system: HL-60(TB) leukemia
LXFL 529 NSCLC = test system: LXFL 529 NSCLC
HOP-62 NSCLC = test system: HOP-62 NSCLC
SF-268 CNS = test system: SF-268 CNS
HCT-116 colon = test system: HCT-116 colon
NCI-H226 lung = test system: NCI-H226 lung
SNB-78 CNS = test system: SNB-78 CNS
LOX IMVI melanoma = test system: LOX IMVI melanoma
IGROV1 ovarian = test system: IGROV1 ovarian
SR leukemia = test system: SR leukemia
SF-539 CNS = test system: SF-539 CNS
KM20L2 colon = test system: KM20L2 colon
RXF 393 renal = test system: RXF 393 renal
SK-OV-3 ovarian = test system: SK-OV-3 ovarian
M14 melanoma = test system: M14 melanoma
CCRF-CEM leukemia = test system: CCRF-CEM leukemia
786-0 renal = test system: 786-0 renal
SW-620 colon = test system: SW-620 colon
EKVX NSCLC = test system: EKVX NSCLC
M19-MEL melanoma = test system: M19-MEL melanoma
SNB-19 CNS = test system: SNB-19 CNS
TK-10 renal = test system: TK-10 renal
OVCAR-3 ovarian = test system: OVCAR-3 ovarian
KM12 colon = test system: KM12 colon
HCT-15 colon = test system: HCT-15 colon
UO-31 renal = test system: UO-31 renal
SF-295 CNS = test system: SF-295 CNS
NCI-H23 lung = test system: NCI-H23 lung
SK-MEL-28 melanoma = test system: SK-MEL-28 melanoma
U251 CNS = test system: U251 CNS
DLD-1 colon = test system: DLD-1 colon
UACC-62 melanoma = test system: UACC-62 melanoma

Measured: TGI

CCCOP1(=O)C=C(O)C(Cl)=C(C)C1 (configuration not stated)
> 100 µM: all assays above
